Results on 3 substances are retold here after publication PMC8097972 (Journal of neurochemistry, 2020).

Assay [1] deals with Kv1.3. The following applies: ref Knaus et al. 1995; Fadool and Levitan 1998; cited from earlier work.
Assay [2] concerns mitral cells. The following applies: cited from earlier work.
Assay [3] has as its target Kv1.3 (Rattus norvegicus, UniProt P15384). The assay is described as follows: Whole-cell patch-clamp inhibition of Kv1.3 in transfected HEK293 cells. The following applies: 10 nM; T0 vs T5 (225 s); two-way mixed-design ANOVA. The assay is classed as cell-based.
The test system of assay [4] is DIO mice. Kind of assay: Intraperitoneal glucose tolerance test in obese mice. The assay is classed as in vivo, mouse. Particulars: day +13 after OB pump start, 12 h fasted, vs PBS; treatment p = 0.0146.
In assay [5] the test system is DIO mice. The assay is described as follows: Indirect calorimetry. The assay is classed as in vivo, mouse. Particulars: +2 to +12, light and dark cycle; light p = 0.496, dark p = 0.2581.

Sequence of Kv1.3 (Rattus norvegicus, UniProt P15384) (P15384 whole entry): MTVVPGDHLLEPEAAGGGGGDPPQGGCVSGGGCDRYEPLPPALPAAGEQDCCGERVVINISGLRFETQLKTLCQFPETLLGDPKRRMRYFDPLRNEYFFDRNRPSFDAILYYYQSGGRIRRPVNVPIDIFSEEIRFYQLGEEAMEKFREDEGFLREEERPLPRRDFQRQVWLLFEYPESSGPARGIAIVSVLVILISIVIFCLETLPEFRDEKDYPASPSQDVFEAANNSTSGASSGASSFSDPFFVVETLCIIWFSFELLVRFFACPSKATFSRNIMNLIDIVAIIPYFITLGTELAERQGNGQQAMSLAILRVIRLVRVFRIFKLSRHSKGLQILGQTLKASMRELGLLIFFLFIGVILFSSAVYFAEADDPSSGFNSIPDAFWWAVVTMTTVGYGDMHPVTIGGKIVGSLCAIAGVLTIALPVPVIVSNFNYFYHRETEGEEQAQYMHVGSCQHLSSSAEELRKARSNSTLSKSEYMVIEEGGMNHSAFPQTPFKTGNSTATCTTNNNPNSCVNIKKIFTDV

On to “margatoxin (TIINVKCTSPKQCLPPCKAQFGQSAGAKCMNGKCKCYPH; UniProt P40755 1-39, looked up) [MgTx]”, for which, in assay [1], the “koff (printed as a time)” value is recorded as 2 h and the “kon (in words)” value is recorded as “rather slow for a vestibule blocker”. Further, the “effect on mitral cell spike firing” value in assay [2] (ref Mast and Fadool 2012, Thiebaud et al. 2016) is “increase the spike firing frequency and reduce the pause duration between AP trains, but have less effect on ISI”.
Regarding insulin, the “ability to increase mitral cell activity after diet-induced obesity” value in assay [2] (following diet-induced obesity, ref Fadool et al. 2011) is “significantly reduced”.
Turning to “QDMgTx: HisMgTx conjugated to His-PIMA-ZW capped CdSe-ZnS QDs by metal-histidine self-assembly (TIINVKCTSPKQCLPPCKAQFGQSAGAKCMNGKCKCYPH; His tag; self-assembled on CdSe-ZnS quantum dots; UniProt P40755 1-39, looked up)”, in assay [3], the “change in Kv1.3 peak current amplitude (in words)” value is listed as “significantly decreased Kv1.3 peak current amplitude”. Besides, in assay [4], the “glucose clearance (IPGTT)” value was “cleared glucose significantly faster than control animals”. Also, in assay [5], the “energy expenditure (EE)” value is recorded as “no change in EE in either the light or dark cycle”.
